In patent publication EP3717657B1, “A SYSTEM FOR ASSESSING MICROBIAL SUSCEPTIBILITY TO ANTIBIOTIC AGENTS” (Ascilion AB, priority 2017, dated 2019):
≈ marks a conversion by molar mass, not a printed value.

Experiments:
[1] = test system: Enterococcus faecalis (ATCC 29212); experiment: Antibiotic susceptibility by glucose consumption in culture medium, blood culture bottle inoculum (Example 1); format: cell-based; details: for Glucose concentration t=0: 0 minutes; for Glucose concentration t=60: 60 minutes; for Glucose concentration t=120: 120 minutes; for Glucose concentration t=180: 180 minutes; for Glucose concentration t=240: 240 minutes; for dC/dT: rate of change in glucose concentration;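 as to dC/dT: rate calculated between the 60 and 180 min readings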
Protocol: (§1) Strains of Escherichia coli (ATCC 25922), Enterococcus faecalis (ATCC 29212) and Staphylococcus aureus (ATCC 29213) were inoculated in blood culture bottles (SVA, Uppsala, Sweden) and cultivated according to the manufacturer's instructions until positive.
(§2) Medium from each blood culture bottle was diluted 1:100 with cation adjusted Mueller-Hinton broth (SVA, Uppsala, Sweden) supplemented with glucose to a concentration of 1.0 mg/mL.
(§3) Table 1: Concentrations of antibiotic agents are given in µg/mL.
(§4) Glucose concentrations were measured at 0, 60, 120, 180, and 240 minutes using a WaveSense Jazz glucometer (AgaMatrix, Inc., Salem, NH, USA) with accompanying test strips.
(§5) Susceptibility scores corresponding to MIC values were calculated as described above. A 80% threshold was applied, i.e. the lowest concentration of antibiotic that entailed a rate of change in glucose concentration that was equal to or less than 80% of the reference was selected as the Minimal Inhibitory Concentration. The rate of change was calculated between the measurements at 60 and 180 minutes.

[2] = test system: Escherichia coli (ATCC 25922); experiment: as above; format: cell-based; details: for Glucose concentration t=0: 0 minutes; for Glucose concentration t=60: 60 minutes; for Glucose concentration t=120: 120 minutes; for Glucose concentration t=180: 180 minutes; for dC/dT: rate of change in glucose concentration; for Glucose concentration t=240: 240 minutes;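 as to dC/dT: rate calculated between the 60 and 180 min readings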
Protocol: as §1, §2, §3, §4, §5

Compound: CO[C@@]1(NC(=O)Cc2cccs2)C(=O)N2C(C(=O)O)=C(COC(N)=O)CS[C@@H]21 [Cefoxitin]
- MIC ([1]; Enterococcus faecalis, ATCC29212, E.faecalis, initial value, disregarded because rate of decrease was higher at 32 µg/mL, read-out: MIC value initially obtained): 4 µg/mL (≈ 9.36 µM)
- F=the rate of change in glucose concentration in relation to the reference ([1]; [Ab] 0,5 µg/mL): 88%
- Glucose concentration t=0 ([1]; [Ab] 0,5 µg/mL): 145
- Glucose concentration t=60 ([1]; [Ab] 0,5 µg/mL): 150
- Glucose concentration t=120 ([1]; [Ab] 0,5 µg/mL): 144
- Glucose concentration t=180 ([1]; [Ab] 0,5 µg/mL): 87
- Glucose concentration t=240 ([1]; [Ab] 0,5 µg/mL): 32
- dC/dT ([1]; [Ab] 0,5 µg/mL): 32
- F=the rate of change in glucose concentration in relation to the reference ([1]; [Ab] 0,25 µg/mL): 93%
- Glucose concentration t=0 ([1]; [Ab] 0,25 µg/mL): 151
- Glucose concentration t=60 ([1]; [Ab] 0,25 µg/mL): 155
- Glucose concentration t=120 ([1]; [Ab] 0,25 µg/mL): 138
- Glucose concentration t=180 ([1]; [Ab] 0,25 µg/mL): 88
- Glucose concentration t=240 ([1]; [Ab] 0,25 µg/mL): 34
- dC/dT ([1]; [Ab] 0,25 µg/mL): 34
- F=the rate of change in glucose concentration in relation to the reference ([1]; [Ab] 1 µg/mL): 85%
- Glucose concentration t=0 ([1]; [Ab] 1 µg/mL): 148
- Glucose concentration t=60 ([1]; [Ab] 1 µg/mL): 159
- Glucose concentration t=120 ([1]; [Ab] 1 µg/mL): 142
- Glucose concentration t=180 ([1]; [Ab] 1 µg/mL): 98
- Glucose concentration t=240 ([1]; [Ab] 1 µg/mL): 31
- dC/dT ([1]; [Ab] 1 µg/mL): 31
- F=the rate of change in glucose concentration in relation to the reference ([1]; [Ab] 2 µg/mL): 99%
- Glucose concentration t=0 ([1]; [Ab] 2 µg/mL): 149
- Glucose concentration t=60 ([1]; [Ab] 2 µg/mL): 169
- Glucose concentration t=120 ([1]; [Ab] 2 µg/mL): 145
- Glucose concentration t=180 ([1]; [Ab] 2 µg/mL): 98
- Glucose concentration t=240 ([1]; [Ab] 2 µg/mL): 36
- dC/dT ([1]; [Ab] 2 µg/mL): 36
- F=the rate of change in glucose concentration in relation to the reference ([1]; [Ab] 4 µg/mL): 74%
- Glucose concentration t=0 ([1]; [Ab] 4 µg/mL): 150
- Glucose concentration t=60 ([1]; [Ab] 4 µg/mL): 159
- Glucose concentration t=120 ([1]; [Ab] 4 µg/mL): 146
- Glucose concentration t=180 ([1]; [Ab] 4 µg/mL): 106
- Glucose concentration t=240 ([1]; [Ab] 4 µg/mL): 27
- dC/dT ([1]; [Ab] 4 µg/mL): 27
- F=the rate of change in glucose concentration in relation to the reference ([1]; [Ab] 8 µg/mL): 63%
- Glucose concentration t=0 ([1]; [Ab] 8 µg/mL): 144
- Glucose concentration t=60 ([1]; [Ab] 8 µg/mL): 149
- Glucose concentration t=120 ([1]; [Ab] 8 µg/mL): 147
- Glucose concentration t=180 ([1]; [Ab] 8 µg/mL): 104
- Glucose concentration t=240 ([1]; [Ab] 8 µg/mL): 23
- dC/dT ([1]; [Ab] 8 µg/mL): 23
- F=the rate of change in glucose concentration in relation to the reference ([1]; [Ab] 16 µg/mL): 68%
- Glucose concentration t=0 ([1]; [Ab] 16 µg/mL): 148
- Glucose concentration t=60 ([1]; [Ab] 16 µg/mL): 154
- Glucose concentration t=120 ([1]; [Ab] 16 µg/mL): 148
- Glucose concentration t=180 ([1]; [Ab] 16 µg/mL): 105
- Glucose concentration t=240 ([1]; [Ab] 16 µg/mL): 25
- dC/dT ([1]; [Ab] 16 µg/mL): 25
- F=the rate of change in glucose concentration in relation to the reference ([1]; [Ab] 32 µg/mL): 74%
- Glucose concentration t=0 ([1]; [Ab] 32 µg/mL): 148
- Glucose concentration t=60 ([1]; [Ab] 32 µg/mL): 155
- Glucose concentration t=120 ([1]; [Ab] 32 µg/mL): 140
- Glucose concentration t=180 ([1]; [Ab] 32 µg/mL): 102
- Glucose concentration t=240 ([1]; [Ab] 32 µg/mL): 27
- dC/dT ([1]; [Ab] 32 µg/mL): 27
- MIC ([2]; Escherichia coli, ATCC25922, E.coli, 80% threshold of rate of change vs reference, between 60 and 180 minutes, obtained in 4 hours, read-out: MIC Measured): 4 µg/mL (≈ 9.36 µM)
- F=the rate of change in glucose concentration in relation to the reference ([2]; [Ab] 0,5 µg/mL): 139%
- Glucose concentration t=0 ([2]; [Ab] 0,5 µg/mL): 139
- Glucose concentration t=60 ([2]; [Ab] 0,5 µg/mL): 154
- Glucose concentration t=120 ([2]; [Ab] 0,5 µg/mL): 140
- Glucose concentration t=180 ([2]; [Ab] 0,5 µg/mL): 54
- dC/dT ([2]; [Ab] 0,5 µg/mL): 86
- F=the rate of change in glucose concentration in relation to the reference ([2]; [Ab] 0,25 µg/mL): 165%
- Glucose concentration t=0 ([2]; [Ab] 0,25 µg/mL): 145
- Glucose concentration t=60 ([2]; [Ab] 0,25 µg/mL): 157
- Glucose concentration t=120 ([2]; [Ab] 0,25 µg/mL): 143
- Glucose concentration t=180 ([2]; [Ab] 0,25 µg/mL): 41
- dC/dT ([2]; [Ab] 0,25 µg/mL): 102
- F=the rate of change in glucose concentration in relation to the reference ([2]; [Ab] 1 µg/mL): 129%
- Glucose concentration t=0 ([2]; [Ab] 1 µg/mL): 144
- Glucose concentration t=60 ([2]; [Ab] 1 µg/mL): 150
- Glucose concentration t=120 ([2]; [Ab] 1 µg/mL): 143
- Glucose concentration t=180 ([2]; [Ab] 1 µg/mL): 63
- dC/dT ([2]; [Ab] 1 µg/mL): 80
- F=the rate of change in glucose concentration in relation to the reference ([2]; [Ab] 2 µg/mL): 102%
- Glucose concentration t=0 ([2]; [Ab] 2 µg/mL): 143
- Glucose concentration t=60 ([2]; [Ab] 2 µg/mL): 163
- Glucose concentration t=120 ([2]; [Ab] 2 µg/mL): 138
- Glucose concentration t=180 ([2]; [Ab] 2 µg/mL): 75
- dC/dT ([2]; [Ab] 2 µg/mL): 63
- F=the rate of change in glucose concentration in relation to the reference ([2]; [Ab] 4 µg/mL): 19%
- Glucose concentration t=0 ([2]; [Ab] 4 µg/mL): 146
- Glucose concentration t=60 ([2]; [Ab] 4 µg/mL): 149
- Glucose concentration t=120 ([2]; [Ab] 4 µg/mL): 140
- Glucose concentration t=180 ([2]; [Ab] 4 µg/mL): 125
- Glucose concentration t=240 ([2]; [Ab] 4 µg/mL): 116
- dC/dT ([2]; [Ab] 4 µg/mL): 12
- F=the rate of change in glucose concentration in relation to the reference ([2]; [Ab] 8 µg/mL): 18%
- Glucose concentration t=0 ([2]; [Ab] 8 µg/mL): 145
- Glucose concentration t=60 ([2]; [Ab] 8 µg/mL): 164
- Glucose concentration t=120 ([2]; [Ab] 8 µg/mL): 149
- Glucose concentration t=180 ([2]; [Ab] 8 µg/mL): 132
- Glucose concentration t=240 ([2]; [Ab] 8 µg/mL): 127
- dC/dT ([2]; [Ab] 8 µg/mL): 11
- F=the rate of change in glucose concentration in relation to the reference ([2]; [Ab] 16 µg/mL): 6%
- Glucose concentration t=0 ([2]; [Ab] 16 µg/mL): 142
- Glucose concentration t=60 ([2]; [Ab] 16 µg/mL): 152
- Glucose concentration t=120 ([2]; [Ab] 16 µg/mL): 152
- Glucose concentration t=180 ([2]; [Ab] 16 µg/mL): 141
- Glucose concentration t=240 ([2]; [Ab] 16 µg/mL): 145
- dC/dT ([2]; [Ab] 16 µg/mL): 4
- F=the rate of change in glucose concentration in relation to the reference ([2]; [Ab] 32 µg/mL): 5%
- Glucose concentration t=0 ([2]; [Ab] 32 µg/mL): 146
- Glucose concentration t=60 ([2]; [Ab] 32 µg/mL): 150
- Glucose concentration t=120 ([2]; [Ab] 32 µg/mL): 143
- Glucose concentration t=180 ([2]; [Ab] 32 µg/mL): 142
- Glucose concentration t=240 ([2]; [Ab] 32 µg/mL): 137
- dC/dT ([2]; [Ab] 32 µg/mL): 3
